Measured values taken from PubChem BioAssay (NCI).
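Results reflect a 48-hour exposure of cells in 96-well plates to compound at five concentrations. The concentration for 50% growth inhibition is given as GI50. Definition used: TGI = concentration required for complete inhibition of growth.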

Assays:
Assay in all cases: NCI anticancer screen, dose series, 48 h
SW-620 colon = tested on: SW-620 colon
NCI-H460 lung = tested on: NCI-H460 lung
NCI-H226 lung = tested on: NCI-H226 lung
SR leukemia = tested on: SR leukemia
HOP-62 NSCLC = tested on: HOP-62 NSCLC
SNB-75 CNS = tested on: SNB-75 CNS
SNB-19 CNS = tested on: SNB-19 CNS
HL-60(TB) leukemia = tested on: HL-60(TB) leukemia
HS 578T breast = tested on: HS 578T breast
SK-MEL-2 melanoma = tested on: SK-MEL-2 melanoma
786-0 renal = tested on: 786-0 renal
COLO 205 colon = tested on: COLO 205 colon
HOP-92 NSCLC = tested on: HOP-92 NSCLC
OVCAR-4 ovarian = tested on: OVCAR-4 ovarian
DU-145 prostate = tested on: DU-145 prostate
UACC-62 melanoma = tested on: UACC-62 melanoma
TK-10 renal = tested on: TK-10 renal
NCI/ADR-RES ovarian = tested on: NCI/ADR-RES ovarian
UO-31 renal = tested on: UO-31 renal
OVCAR-8 ovarian = tested on: OVCAR-8 ovarian
LOX IMVI melanoma = tested on: LOX IMVI melanoma
SF-539 CNS = tested on: SF-539 CNS
RXF 393 renal = tested on: RXF 393 renal
SK-OV-3 ovarian = tested on: SK-OV-3 ovarian
M14 melanoma = tested on: M14 melanoma
SF-268 CNS = tested on: SF-268 CNS
HCC-2998 colon = tested on: HCC-2998 colon
HCT-15 colon = tested on: HCT-15 colon
NCI-H23 lung = tested on: NCI-H23 lung
SK-MEL-5 melanoma = tested on: SK-MEL-5 melanoma
U251 CNS = tested on: U251 CNS
SN12C renal = tested on: SN12C renal
A498 renal = tested on: A498 renal
MALME-3M melanoma = tested on: MALME-3M melanoma
T-47D breast = tested on: T-47D breast
CCRF-CEM leukemia = tested on: CCRF-CEM leukemia
EKVX NSCLC = tested on: EKVX NSCLC
MDA-MB-435 = tested on: MDA-MB-435
UACC-257 melanoma = tested on: UACC-257 melanoma
MCF7 breast = tested on: MCF7 breast
ACHN renal = tested on: ACHN renal
IGROV1 ovarian = tested on: IGROV1 ovarian
HCT-116 colon = tested on: HCT-116 colon
A549 NSCLC = tested on: A549 NSCLC
MDA-MB-231 breast = tested on: MDA-MB-231 breast
SK-MEL-28 melanoma = tested on: SK-MEL-28 melanoma
SF-295 CNS = tested on: SF-295 CNS
KM12 colon = tested on: KM12 colon
HT29 colon = tested on: HT29 colon

## C[C@H]1[C@H](C)CC[C@]2(C(=O)OCCCC[P+](c3ccccc3)(c3ccccc3)c3ccccc3)CC[C@]3(C)C(=CC[C@@H]4[C@@]5(C)CC[C@H](OC(=O)C(Cl)Cl)C(C)(C)[C@@H]5CC[C@]43C)[C@H]12
SW-620 colon
  GI50: 0.349 µM
  TGI: 1.29 µM
NCI-H460 lung
  GI50: 0.283 µM
  TGI: 0.975 µM
NCI-H226 lung
  GI50: 0.354 µM
  TGI: 1.82 µM

## [2H]C([2H])([2H])Oc1cc(F)ccc1/C=C/C(=O)/C=C(/C=C/c1ccc(F)cc1OC([2H])([2H])[2H])OB(F)F
SR leukemia
  GI50: 2.67 µM
  TGI: > 100 µM
HOP-62 NSCLC
  GI50: 3.11 µM
  TGI: > 100 µM
SNB-75 CNS
  GI50: 2.39 µM
  TGI: > 100 µM
SNB-19 CNS
  GI50: 3.47 µM
  TGI: > 100 µM
HL-60(TB) leukemia
  GI50: 1.68 µM
  TGI: 6.67 µM
HS 578T breast
  GI50: 5.67 µM
  TGI: > 100 µM
SK-MEL-2 melanoma
  GI50: 2.99 µM
  TGI: > 100 µM

## COc1cc(C2NCCC(c3ccccc3)(c3ccccc3)N2)cc(OC)c1OC (stereo not drawn)
786-0 renal
  TGI: > 100 µM
COLO 205 colon
  TGI: 42.4 µM
HOP-92 NSCLC
  TGI: 27.9 µM
OVCAR-4 ovarian
  TGI: > 100 µM
SW-620 colon
  TGI: > 100 µM
DU-145 prostate
  TGI: > 100 µM
NCI-H460 lung
  TGI: > 100 µM
UACC-62 melanoma
  TGI: > 100 µM
TK-10 renal
  TGI: > 100 µM
NCI/ADR-RES ovarian
  TGI: > 100 µM
SR leukemia
  TGI: > 100 µM
UO-31 renal
  TGI: 66.2 µM
OVCAR-8 ovarian
  TGI: > 100 µM
LOX IMVI melanoma
  TGI: 47.7 µM
SF-539 CNS
  TGI: 29.7 µM
RXF 393 renal
  TGI: > 100 µM
SK-OV-3 ovarian
  TGI: > 100 µM
M14 melanoma
  TGI: 27.2 µM
SF-268 CNS
  TGI: > 100 µM
HCC-2998 colon
  TGI: 42.7 µM
HOP-62 NSCLC
  TGI: > 100 µM
HCT-15 colon
  TGI: > 100 µM
NCI-H23 lung
  TGI: > 100 µM
SK-MEL-5 melanoma
  TGI: 32.1 µM
U251 CNS
  TGI: > 100 µM
SNB-75 CNS
  TGI: > 100 µM
SNB-19 CNS
  TGI: > 100 µM
SN12C renal
  TGI: > 100 µM
A498 renal
  TGI: 88.6 µM
HL-60(TB) leukemia
  TGI: 90.2 µM
HS 578T breast
  TGI: 79.5 µM
MALME-3M melanoma
  TGI: 34 µM
T-47D breast
  TGI: > 100 µM
CCRF-CEM leukemia
  TGI: > 100 µM
NCI-H226 lung
  TGI: 43.8 µM
EKVX NSCLC
  TGI: > 100 µM
MDA-MB-435
  TGI: > 100 µM
UACC-257 melanoma
  TGI: 33.9 µM
MCF7 breast
  TGI: 85.8 µM
ACHN renal
  TGI: > 100 µM
IGROV1 ovarian
  TGI: > 100 µM
HCT-116 colon
  TGI: > 100 µM
A549 NSCLC
  TGI: > 100 µM
MDA-MB-231 breast
  TGI: > 100 µM
SK-MEL-28 melanoma
  TGI: 35.6 µM
SF-295 CNS
  TGI: 35.8 µM
KM12 colon
  TGI: > 100 µM
HT29 colon
  TGI: 79.4 µM
